Measured values reported in US10844017B2, “Biaryl compound, preparation method and use thereof” (FUDAN UNIVERSITY, priority 2017, dated 2020).

What was measured:
[1] = test system: Mouse lymphoma EL4 cells transfected with RORγt plasmid; experiment: Determination of the activation rate on mouse lymphoma EL4 (IL-17 generation); type: cell-based; details: compound at 2 μM, 24 hours, PMA/ionomycin stimulation 4 hours, flow cytometry, read-out: +act % (activation of IL-17 generated by EL4 cells)
Procedure: Determination of the Activation Rate on Mouse Lymphoma EL4
Mouse lymphoma EL4 cells transfected with RORγt plasmid were cultured at 37° C. under an atmosphere with 5% CO2, with a test compound added simultaneously. After 24 hours, the generation efficiency of IL-17A was analyzed. Before collection of cells, PMA at 50 ng/mL and ionomycin at 500 ng/mL were added for stimulation for 4 hours. The proportion of IL-17 was detected by intracellular staining and flow cytometry. […] The activation rate of IL-17 generated by EL4 cells for the compound was measured at a concentration of 2 μM.

[2] = test system: Mouse spleen CD4+T cells differentiated into Th17 cells; experiment: Mouse Th17 cell differentiation, half-maximal effect concentration; type: cell-based; details: 96 hours, proportion of IL-17 by intracellular staining and flow cytometry
Procedure: Determination of the Half-Maximal Effect Concentration of Mouse Th17 Cell Differentiation
Experimental methods: Mouse spleen CD4^+T cells were separated and differentiated into Th17 cells. CD4^+T cells were cultured in the environment containing anti-CD3 (0.25 μg/mL), anti-CD28 (1 μg/mL), anti-IL4 (2 μg/mL), anti-IFN-γ (2 μg/mL), TGF-β (5 ng/mL), and IL6 (20 ng/mL), with a test compound added at the same time. After 96 hours, the differentiation efficiency of Th17 was analyzed. Before collection of cells, PMA at 50 ng/mL and ionomycin at 500 ng/mL were added for stimulation for 4 hours, and the proportion of IL-17 was detected by intracellular staining and flow cytometry. Meanwhile, we used Live/Dead Cell Dye (Invitrogen) staining method to analyze the cell survival rate and to judge whether the drug had toxicity to cells, and determined the half-maximal effect concentration EC50 of the compounds.

[3] = biological target: T1, RORγ receptor (B-RORγ LBD / Bioin-SRC1) (Homo sapiens, UniProt P51449); experiment: Determination of agonistic activities on RORγ receptors in vitro (dual FRET); type: biochemical; details: average of at least two independent experiments
T1 construct: 40 nM B-RORγ LBD solution
T1 sequence (P51449 269-508 limits assumed): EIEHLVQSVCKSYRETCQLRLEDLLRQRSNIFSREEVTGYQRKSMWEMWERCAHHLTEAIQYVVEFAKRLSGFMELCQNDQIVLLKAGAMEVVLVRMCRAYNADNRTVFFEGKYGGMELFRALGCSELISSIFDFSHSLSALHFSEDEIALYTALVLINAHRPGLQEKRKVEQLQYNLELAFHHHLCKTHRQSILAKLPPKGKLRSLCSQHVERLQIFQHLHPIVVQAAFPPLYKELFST
T1 sequence (Q15788 676-700 partner limits assumed): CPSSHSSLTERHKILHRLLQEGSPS
Procedure: Determination of Agonistic Activities of Compounds on RORγ Receptors In Vitro The agonistic activities of compounds described herein on RORγ receptor were determined by dual fluorescence resonance energy transfer (dual FRET) experiments. The agonistic activity was expressed by half maximum effect concentration (EC50).
1) Preparation of RORγ Assay Buffer
100 mL of buffer solution was well mixed with […] DTT for use.
2) Preparation of Solutions of Compounds
3) Preparation of protein mixtures a) 40 nM B-RORγ LBD solution was mixed well with 20 nM SA-APC solution and incubated for 15 minutes at room temperature. Then the resulting mixture was further mixed well with 400 nM Biotin and incubated for another 10 minutes at room temperature. […]
b) 40 nM Bioin-SRC1 solution was mixed well with 10 nM SA-eu solution and was incubated for 15 minutes at room temperature. Then the resulting mixture was further mixed well with 200 nM Biotin and was incubated for another 10 minutes at room temperature. […]
d) A mixture (25 μL) of B-RORγ LBD/SA-APC and Bioin-SRC1/SA-eu together with a test compound was added to one of the wells of a 384-well plate, and then the plate was centrifuged for one minute at 1000 rpm, and incubated at room temperature for one hour. The data were read on an Envision microplate detector and EC50 values were calculated.

Row | EC50 [2] | EC50 [3] | SMILES | activation at 2 µM [1]
1 | < 0.05 µM | 0.01 to 0.05 µM | CCS(=O)(=O)c1ccc(CC(=O)Nc2cc(Cl)c(-c3ccc(CC(C)C)c(C#N)c3)c(Cl)c2)cc1 [Example 16, N-(2,6-Dichloro-3′-cyano-4′-isobutyl-[1,1′-biphenyl]-4-yl)-2-(4-(ethylsulfonyl)phenyl)acetamide] | > 50%
2 | < 0.05 µM | 0.01 to 0.05 µM | CC(C)Cc1ccc(-c2c(Cl)cc(NC(=O)Cc3ccc(S(C)(=O)=O)cc3)cc2Cl)cc1C#N [Example 17, N-(2,6-Dichloro-3′-cyano-4′-isobutyl-[1,1′-biphenyl]-4-yl)-2-(4-(methylsulfonyl)phenyl)acetamide] | > 50%
3 | > 0.15 µM | 0.01 to 0.05 µM | CC(C)Cc1ccc(-c2c(Cl)cc(NC(=O)Cc3ccc(S(C)(=O)=O)cn3)cc2Cl)cc1C#N [Example 20, N-(2,6-dichloro-3′-cyano-4′-isobutyl-[1,1′-biphenyl]-4-yl)-2-(5-(methylsulfonyl)pyridin-2-yl)acetamide] | > 50%
4 | < 0.05 µM | < 0.01 µM | CC(C)Cc1ccc(-c2c(Cl)cc(NC(=O)Cc3ccc(S(N)(=O)=O)cc3)cc2Cl)cc1C#N [Example 21, N-(2,6-Dichloro-3′-cyano-4′-isobutyl-[1,1′-biphenyl]-4-yl)-2-(4-sulfamoylphenyl)acetamide] | 20 to 50%
5 | > 0.15 µM | 0.01 to 0.05 µM | CCN(C)Cc1ccc(-c2c(Cl)cc(NC(=O)Cc3ccc(S(=O)(=O)CC)cc3)cc2Cl)cc1C#N [Example 36, N-(2,6-Dichloro-3′-cyano-4′-((ethyl(methyl)amino)methyl)-[1,1′-biphenyl]-4-yl)-2-(4-(ethylsulfonyl)phenyl)acetamide] | > 50%
6 | 0.05 to 0.15 µM | – | CCS(=O)(=O)c1ccc(CC(=O)Nc2cc(Cl)c(-c3ccc(CC(C)C)c(C#N)c3)c(Cl)c2)nc1 [Example 19, N-(2,6-Dichloro-3′-cyano-4′-isobutyl-[1,1′-biphenyl]-4-yl)-2-(5-(ethylsulfonyl)pyridin-2-yl)acetamide] | 20 to 50%
